Measured values as given in US11634391B2, “Compounds which are inhibitors of Notum” (UCL BUSINESS LTD, priority 2018, dated 2023).
Counter-ions that a name gives are not always drawn.

Target: notum carboxyesterase enzyme (Homo sapiens (Human), UniProt Q6P988)
Assay: Biochemical Notum Enzymatic Activity Assay (OPTS substrate, fluorescence)
Details: 2 μM OPTS solution, 2.38 nM notum enzyme solution, 1 hour incubation at room temperature, fluorescence ex 485 nm / em 520 nm; n≥2
Description: Plate layout and measured fluorescence values were input into Dotmatics Studies data management tool.

notum carboxyesterase enzyme, sequence (Q6P988 20-496): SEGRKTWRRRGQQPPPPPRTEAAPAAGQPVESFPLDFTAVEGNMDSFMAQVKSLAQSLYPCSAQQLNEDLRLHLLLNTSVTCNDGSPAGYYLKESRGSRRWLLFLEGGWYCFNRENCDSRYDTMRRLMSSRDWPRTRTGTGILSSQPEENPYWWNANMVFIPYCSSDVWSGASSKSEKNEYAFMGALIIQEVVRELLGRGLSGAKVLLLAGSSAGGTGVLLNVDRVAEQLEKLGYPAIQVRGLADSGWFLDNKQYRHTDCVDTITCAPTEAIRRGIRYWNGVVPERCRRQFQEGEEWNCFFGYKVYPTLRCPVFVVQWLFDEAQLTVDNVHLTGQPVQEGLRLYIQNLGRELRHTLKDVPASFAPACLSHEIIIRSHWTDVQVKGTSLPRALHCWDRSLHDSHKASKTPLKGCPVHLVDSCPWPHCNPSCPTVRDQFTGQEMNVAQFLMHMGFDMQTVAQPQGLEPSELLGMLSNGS

Compound	IC50 [µM]
COCc1cn(-c2ccc(Cl)c(Cl)c2)nn1 [Compound 43, 1-(3,4-dichlorophenyl)-4-(methoxymethyl)-1H-1,2,3-triazole]	5.04
FC(F)(F)c1c(Cl)ccc(-n2cnnn2)c1Cl [Compound 298, 1-(2,4-dichloro-3-(trifluoromethyl)phenyl)-1H-tetrazole]	0.136
CC(O)c1cn(-c2ccc(Cl)c(C(F)(F)F)c2Cl)nn1 (stereo not drawn) [Compound 310, 1-[1-[2,4-dichloro-3-(trifluoromethyl)phenyl]triazol-4-yl]ethanol]	1.83
Nc1nc(-c2ccccc2)no1 [Compound 141, 3-phenyl-1,2,4-oxadiazol-5-amine]	70.6
OCCCc1cn(-c2ccc(Cl)c(C(F)(F)F)c2)nn1 [Compound 302, 3-[1-[4-chloro-3-(trifluoromethyl)phenyl]triazol-4-yl]propan-1-ol]	7.51
Oc1c(F)cc(F)cc1-c1cc[nH]n1 [Compound 52, 2,4-difluoro-6-(1H-pyrazol-3-yl)phenol]	3.27
N#CNc1nnc(-c2ccc(Cl)c(C(F)(F)F)c2Cl)o1 [Compound 246, N-(5-(2,4-dichloro-3-(trifluoromethyl)phenyl)-1,3,4-oxadiazol-2-yl)cyanamide, ammonia salt]	0.0073
OCc1cn(-c2ccc3ccccc3c2)nn1 [Compound 3, (1-(naphthalen-2-yl)-1H-1,2,3-triazol-4-yl)methanol]	1.28
O=c1cccc(-c2ccccc2)[nH]1 [Compound 237, 6-phenylpyridin-2(1H)-one]	49.6
Cn1nc(-c2ccc(Cl)c(C(F)(F)F)c2Cl)oc1=O [Compound 245, 5-(2,4-dichloro-3-(trifluoromethyl)phenyl)-3-methyl-1,3,4-oxadiazol-2(3H)-one]	0.067
CN(C)c1nnc(-c2ccc(Cl)c(C(F)(F)F)c2Cl)o1 [Compound 247, 5-(2,4-dichloro-3-(trifluoromethyl)phenyl)-N,N-dimethyl-1,3,4-oxadiazol-2-amine]	0.439
Clc1cccc(-c2cc[nH]n2)c1 [Compound 54, 3-(3-chlorophenyl)-1H-pyrazole]	17.7
Clc1ccc(-c2nnco2)cn1 [Compound 124, 2-(6-chloropyridin-3-yl)-1,3,4-oxadiazole]	13
FC(F)(F)c1cc(-c2cc[nH]n2)ccc1Cl [Compound 51, 3-(4-chloro-3-(trifluoromethyl)phenyl)-1H-pyrazole]	1.36
FC(F)(F)c1cccc(-n2cnnn2)c1 [Compound 213, 1-[3-(trifluoromethyl)phenyl]tetrazole]	4.87
Cn1ncc2ccc(-n3cc(CO)nn3)cc21 [Compound 15, (1-(1-methyl-1H-indazol-6-yl)-1H-1,2,3-triazol-4-yl)methanol]	86.1
Cc1nnc(-c2ccc(Cl)c(C(F)(F)F)c2Cl)o1 [Compound 299, 2-(2,4-dichloro-3-(trifluoromethyl)phenyl)-5-methyl-1,3,4-oxadiazole]	0.027
CN1CC(C)(C)c2cc(-c3nnc(O)o3)ccc21 [Compound 180, 5-(1,3,3-trimethylindolin-5-yl)-1,3,4-oxadiazol-2-ol]	0.0344
ClCc1nnc(-c2ccc(Cl)c(Cl)c2)o1 [Compound 125, 2-(chloromethyl)-5-(3,4-dichlorophenyl)-1,3,4-oxadiazole]	61
NCc1cc(-c2ccc(Cl)cc2)no1 [Compound 167, (3-(4-chlorophenyl)isoxazol-5-yl)methanamine]	70.2
Fc1ccc(-c2cc[nH]n2)cc1F [Compound 53, 3-(3,4-difluorophenyl)-1H-pyrazole]	16.7
